Data published in paper PMC6314990 (Forensic Toxicology, 2018).

How the values were obtained:
[1] = test system: pentobarbital-induced sleep in mice; experiment: Cannabinoid-induced potentiation of pentobarbital-induced sleep and effect of CB1 receptor antagonists; type: in vivo, ddY mice; conditions: for Prolongation of pentobarbital-induced sleep compared with vehicle-pretreated group (Veh + Veh): cannabinoid 10 mg/kg i.v., pentobarbital 40 mg/kg i.p. 15 min later, male ddY mice, n = 8
Procedure: For the pharmacological studies, cannabinoids and antagonists were suspended in saline containing 1% Tween 80. Sodium pentobarbital was dissolved in saline and injected intraperitoneally (i.p.; 40 mg/kg) for the mice. Male ddY mice weighing 20–25 g were housed in groups of 8. All animals were kept in a temperature-controlled (25 °C) environment with a 12-h light–dark cycle (lights on at 7:00 a.m.) and received food and water ad libitum. […] One percent Tween 80-saline solution was injected instead of cannabinoids or antagonists for the vehicle treated group as a control.

CB1 receptor = CB1 receptor (Mus musculus, UniProt P47746)
CB1 receptor, sequence (P47746 whole entry): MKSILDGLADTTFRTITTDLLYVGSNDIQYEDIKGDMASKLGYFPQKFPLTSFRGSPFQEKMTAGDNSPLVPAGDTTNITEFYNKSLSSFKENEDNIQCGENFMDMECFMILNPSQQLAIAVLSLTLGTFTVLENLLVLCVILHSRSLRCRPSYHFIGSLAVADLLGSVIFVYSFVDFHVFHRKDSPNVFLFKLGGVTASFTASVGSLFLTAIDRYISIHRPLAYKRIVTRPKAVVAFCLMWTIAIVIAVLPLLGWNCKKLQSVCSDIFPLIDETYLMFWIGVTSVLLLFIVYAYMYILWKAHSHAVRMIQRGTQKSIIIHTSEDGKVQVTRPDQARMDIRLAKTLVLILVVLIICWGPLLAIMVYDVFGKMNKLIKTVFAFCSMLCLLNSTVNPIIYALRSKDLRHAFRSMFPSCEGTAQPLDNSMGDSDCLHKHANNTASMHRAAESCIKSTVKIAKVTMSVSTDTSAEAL
Procedure: Crude synaptic membranes from ddY male mice brains were prepared according to the method of Zukin et al. [32] with a slight modification. Briefly, whole mice brains were homogenized in 15 volumes of ice-cold 0.32 M sucrose for 1 min with a Polytron homogenizer (Kinematica, Lucerne, Switzerland), followed by centrifugation at 1000 g for 10 min at 4 °C. The pellet was discarded and the supernatant was centrifuged at 20000g for 20 min at 4 °C. This pellet was homogenized for 15 s in 40 volumes of ice-cold distilled water and further dispersed with a Polytron homogenizer. The suspension was then centrifuged at 8000g for 20 min at 4 °C. The supernatant and the soft buffy upper layer of the pellet were carefully collected and combined. This fraction was then centrifuged at 48000g for 20 min at 4 °C.
A ligand binding assay for the cannabinoid receptor was performed according to the method of Devane et al. [34] and Compton et al. [16]. […] The filters were then placed in glass scintillation vials with 10 ml of Clearsol and the radioactivity was counted using a liquid scintillation counter (LSC-6100, Aloka, Tokyo, Japan). […] The inhibitory constant (Ki value) was calculated according to the method of Speth et al. [35].

Structure (SMILES): Cc1c(C(=O)NN2CCCCC2)nn(-c2ccc(Cl)cc2Cl)c1-c1ccc(I)cc1 [AM251, N-(piperidin-1-yl)-5-(4-iodophenyl)-1-(2,4-dichlorophenyl)-4-methyl-1H-pyrazole-3-carboxamide]
- Effect of antagonist on potentiating effect of ∆9-THC on pentobarbital-induced sleep, low dose ([1]; antagonist 2 mg/kg i.v., ∆9-THC 10 mg/kg i.v., pentobarbital 40 mg/kg i.p., mice): attenuated
- Effect of antagonist pretreatment on potentiation of pentobarbital-induced sleep by ∆9-THC ([1]; antagonist 2–10 mg/kg i.v. 10 min before ∆9-THC 10 mg/kg i.v., pentobarbital 40 mg/kg i.p., mice): decreased dose-dependently
- Effect of antagonist alone (antagonist + Veh) on pentobarbital-induced sleeping time ([1]; without ∆9-THC, pentobarbital 40 mg/kg i.p., mice): no change in pentobarbital-induced sleeping time

Structure (SMILES): C=C(C)[C@@H]1CCC(C)=C[C@H]1c1c(O)cc(CCCCC)cc1O [CBD, cannabidiol]
- Prolongation of pentobarbital-induced sleep compared with vehicle-pretreated group (Veh + Veh) [1]: 1.8 fold

Structure (SMILES): CCCC(C)C1(CC)C(=O)NC(=O)NC1=O (stereo not shown) [Pentobarbital, sodium pentobarbital]
- Specific [3H]CP55940 binding (CB1 receptor; pentobarbital 1 mM added to the reaction mixture, control 0.055 ± 0.002, N.S. vs control): 0.050 ± 0.003 ^N.S. pmol/mg protein
- Effect on specific [3H]CP55940 binding (CB1 receptor; pentobarbital 1 mM, mouse brain synaptic membrane): did not affect specific [^3H]CP55940 binding

Structure (SMILES): CCCCCc1cc(O)c2c(c1)OC(C)(C)[C@@H]1CCC(C)=CC21 (stereo partly shown) [∆^9-THC, ∆^9-tetrahydrocannabinol]
- Prolongation of pentobarbital-induced sleep compared with vehicle-pretreated group (Veh + Veh) [1]: 3.3 fold
